Some results are limits rather than exact numbers.

Data set [1] can be described thus: Ropivacaine pharmacokinetics and duration of effect (literature review). Format: in vivo. Particulars: single dose; additional doses required for longer action. Here is the method:
Ropivacaine is preferably used as the hydrochloride salt and S-enantiomer thereof for acute pain management and surgical anesthesia. […] Therefore, ropivacaine loses its sensible effect within about 4 hours and additional doses are required for a longer action.

For data set [2] the following is noted: administered intravenously, cited from earlier work.

Regarding `CCCN1CCCC[C@H]1C(=O)Nc1c(C)cccc1C` [Ropivacaine], in data set [1], the “time within which sensible effect is lost” value is not above 4 h. Further, in data set [2], the “mean half-life of the initial phase” value was 14 min. In data set [2] (slower phase), the “mean absorption t1/2 of the slower phase” value was “approximately 4.2 hours”.

Source of the values: patent US20230270755A1, “COMBINATION OF MEDICATIONS IN A PARENTERAL DOSAGE FORM FOR LONG-TERM ANAESTHESIA” (PHARMAFINA ILAC SATIS VE PAZARLAMA ANONIM SIRKETI, priority 2020, published 2023).
